Values of other authors, collected in patent publication US20120121653A1, “Novel mometasone compositions and methods of making and using the same” (Elan Pharma International Limited, priority 2005, published 2012).
Read-outs that look alike come from different tables or passages of the source.

Columns and labels:
[1] = not given; remark: listed apart in the source

In the case of `C[C@@H]1C[C@H]2[C@@H]3CCC4=CC(=O)C=C[C@]4(C)[C@@]3(Cl)[C@@H](O)C[C@]2(C)[C@@]1(OC(=O)c1ccco1)C(=O)CCl` [Mometasone furoate monohydrate, 9,21-Dichloro-11, β,17-di-hydroxy-16^α-methylpregna-1,4-diene-3 ,20-done 17-(2 furoate)], the solubility (in acetone) is listed as “soluble”, the solubility (in chloroform) is listed as “soluble” and the solubility (in ethanol) is listed as “slightly soluble”. For the same compound, the solubility (in isopropanol) was “slightly soluble”, the solubility (in methanol) was “slightly soluble” and the solubility (in tetrahydrofuran) was “freely soluble”. The solubility (in water) was “practically insoluble” and the “partition coefficient between octanol and water” value [1] was “greater than 5000”.
